From a melting point compilation (Tetko et al.; mined from patent text by program, amines drawn as free bases though some values may be those of a salt)

Compound	melting point [°C]
FC(F)(F)c1ccc2c(c1)N(CC1CN3CCC1CC3)c1ccccc1S2 (configuration not stated)	150
O=C(O)C1CCCc2c(-c3ccc(Cl)c(Cl)c3)noc2C1 (configuration not stated)	183 to 185
O=C(O)CCNC(=O)c1ccc(N(Cc2ccc(C3=CCCCC3)cc2)C(=O)C=Cc2cccc(OC(F)(F)F)c2)cc1	178 to 180
Clc1cn2cc(Cl)c(Cl)c(Cl)c2n1	232 to 233
COc1ccc(-c2ccc3c(c2)CCCC3=O)c2c1OCCO2	156 to 158
N#Cc1ccc(OCC(O)CN2CC3CC(C2)CN(C(=O)Oc2ccc(F)cc2)C3)cc1 (configuration not stated)	145 to 146
COC(=O)COc1ccc(NC(=O)CO)cc1	148 to 150
Cc1cn(-c2cc(C#N)c(N)c(C(F)(F)F)c2)c(C)n1	208 to 210
Cc1ccc(N(C)C2CCN(CC(=O)Nc3ccc(NS(C)(=O)=O)cc3)CC2)cc1	128 to 130
O=C(O)CCCCCNC(=O)C(F)(F)F	90 to 91
O=C(O)C1=Cc2ccc(Br)cc2OC1C(F)(F)F (configuration not stated)	198 to 200
Cc1cc(Oc2ccc([N+](=O)[O-])cc2)n[nH]1	124 to 125
CN(c1ccc(OC(F)(F)F)cc1)c1cc(C(F)(F)F)nc(NN=Cc2ccc(OC(F)(F)F)cc2)n1	180 to 182
C(=Cc1ccc(-c2ccc(C=Cc3ccccc3)cc2)cc1)c1ccccc1	323 to 325
O=S1(=O)NC(C2CCCCC2)Nc2ccc(S(=O)(=O)N3CCCC3)cc21 (configuration not stated)	244 to 246
CN(C)C1(c2ccccc2)CCC(O)(c2cc3ccccc3n2S(=O)(=O)c2ccccc2)CC1 (configuration not stated)	173 to 176
COC(C)(CCCCCC(C)(C)O)c1cccc(C=Cc2cc(O)cc(O)c2)c1 (configuration not stated)	65 to 75
CC=C1CCC2C3CC=C4CC(OC(C)=O)CC(OC(C)=O)C4(C)C3CCC12C (configuration not stated)	90 to 91
CSc1ccc([N+](=O)[O-])c2nonc12	118 to 120
COc1c([N+](=O)[O-])cc2cc(-c3ccc([N+](=O)[O-])cc3)c(=O)oc2c1OC	219 to 223
CN1CC=C(C2=C(C#N)C(c3cccc(C#N)c3Br)c3c[nH]nc3N2)CC1 (configuration not stated)	233
CCCCCCCCCCCCCCCC(=O)OCCCCN	59 to 61

Compound	melting point [°C]
O=C(Cc1ccccc1)N1CCN(Cc2n[nH]c3cc(F)ccc23)CC1	173 to 174
C=CCN(CC=C)C(=O)n1cnc(S(=O)(=O)CCC)n1	41 to 42
O=C(NCc1ccc(Cl)c(C(F)(F)F)c1)Nc1cccc2[nH]ccc12	197
C#CCC(CC#C)(C(=O)NO)S(=O)(=O)c1ccc(OC)cc1	156
Cn1c(COc2ccc(CC3SC(=O)NC3=O)cc2)nc2ccc(Oc3ccc(CCNC(=O)Nc4ccc(F)cc4F)cc3)cc21 (configuration not stated)	161 to 164
COc1ccc(F)cc1C(C)(C)CC(O)(Cc1ccc(C(=O)O)cc1)C(F)(F)F (configuration not stated)	174 to 177
CN(C(=O)N[C@@H](Cc1ccc(NC(=O)c2c(Cl)cccc2Cl)cc1)C(=O)O)c1ccccc1C(=O)NCC1CCCCC1	201
Cn1c(=O)[nH]c2ccsc2c1=O	260 to 262
CC(C)CC(NC(=O)OC(C)(C)C)C(=O)NCCC(=O)O (configuration not stated)	91 to 92
COc1ccc(C(=O)Nc2ccccc2)cc1NC(=S)Nc1c(F)c(F)cc(F)c1F	170 to 174
CC(=O)OC1CSC(Oc2ccc(-c3ccncc3)nc2)C(OC(C)=O)C1OC(C)=O (configuration not stated)	189
CC(C)(C)OC(=O)Nc1ccc(I)cc1N	127 to 130
Cc1nc(OS(=O)(=O)C(F)(F)F)c([N+](=O)[O-])c(NCC(C)(C)O)c1C	79 to 80
CCCCCCC(=O)Nc1ccc(-n2nc(C(F)(F)F)cc2C(F)(F)F)cc1	88 to 90
CC(=O)N1CCC(NC(=O)N(CCCN2CCC(Cc3ccccc3)CC2)c2ccccc2)CC1	132 to 135
FC(F)(F)C1(c2cc(Cl)cc(Cl)c2)CC(c2ccc(-n3cccc3)cc2)=NO1 (configuration not stated)	206 to 208
O=C(CNC1=Nc2ccc(Cl)cc2C(c2ccccc2Cl)=NC1)CN1C(=O)c2ccccc2C1=O	180 to 190
CC1(C)[C@H](Cc2noc(C(F)(F)F)n2)CC[C@]1(C)NCC(=O)N1C[C@@H](F)C[C@H]1C#N	130 to 131
Fc1ccc(OC(CN2CCN(c3ccccc3)CC2)c2ccccc2)cc1 (configuration not stated)	80 to 82
Cc1c(-c2ccncc2)oc2c1C(=O)C(C)(C)CC2	133 to 134
N#CC(C#N)CC(CC(F)(F)C(F)(F)C(F)(F)C(F)F)SC(F)(F)F (configuration not stated)	72 to 74

Next, values leading:

melting point [°C]	Compound
84 to 85	Cc1cccc(-c2nc(C(C)C)[nH]c2-c2ccc(F)c(-c3cnn(C(C)C)c3)c2)n1
146 to 148	COc1ccccc1C1CC(=O)CC(c2ccccc2OC)N1C (configuration not stated)
178	CCCC1=C(C(=O)OCC)C(c2ccccc2C)c2c[nH]nc2N1 (configuration not stated)
149 to 151	CN(C)C(=O)C(C)(C)c1cn2nc(Cl)ccc2n1
224 to 228	COc1ccc(N2C(=O)N(c3cccc(C#N)c3)c3nc(Nc4ccccc4)ncc3C2C)cc1 (configuration not stated)
87 to 88	COC(=O)/C(=C/c1cccc(OC)c1)c1cc(OC)c(OC)c(OC)c1
164	CCc1nnc(-c2ccccc2)c(=O)n1N
70 to 72	FC(F)Oc1cnnc(-c2cccc(C(F)(F)F)c2)c1
188 to 190	COC(=O)c1cc2c3cc(Cl)ccc3n(C)c2s1
113	COC(=O)C(NC(=O)c1ccccc1)C(C)=O (configuration not stated)
188 to 190	COc1ccc(-c2nc(S(=O)c3ccccc3)[nH]c2-c2ccc(OC)cc2)cc1 (configuration not stated)
119 to 121	CN1CCC(C2=Nc3ccccc3N(C)c3ccccc32)CC1
154 to 155	CCOC(=O)Cn1cc(I)c(NC(=O)c2ccccc2)nc1=O
106 to 107	COC(=O)C(=O)c1ccccc1COc1ccc(-c2ccccc2)cc1
214 to 215	S=C1Nc2cc(Br)ccc2-n2ccc3cccc1c32
84 to 85	CCN(CC)CCOc1ccc(Nc2ncc3ccc(=O)n(C(C)C)c3n2)cc1
182 to 184	Nc1cc(OCc2ccccc2)c(C(=O)O)cc1Cl
190 to 192	N#Cc1cn(-c2ccccc2)nc1-c1ccc([N+](=O)[O-])o1
213 to 214	CN1CCc2cc(S(=O)(=O)Nc3cnc4ccc(Cl)cc4n3)ccc21
168 to 173	CC(C)(C)OC(=O)N1CCN(c2cccc3cc(N)cnc23)CC1

melting point [°C]	Compound
296 to 298	O=c1c2c(c3cccnc3n1-c1ccccc1)OCC(O)C2 (configuration not stated)
171 to 172	C=C(Cc1ccc(-c2cccc3cncn23)cc1)C(=O)O
184 to 189	COc1ccc2c(-c3cccc(F)c3F)noc2c1Cl
214 to 215	CC(C)Oc1ccc(OCc2ccccc2)cc1-c1nc2ccc(C#N)nc2[nH]1
188 to 190	Cc1[nH]c2c(N3CCNCC3)cccc2c1S(=O)(=O)c1ccccc1
270 to 272	NC(=O)c1cccc2nnsc12
134	CCCC(=O)Nc1cc(S(=O)c2ccccc2)ccc1N(C(=N)NC(=O)OC)C(=O)OC (configuration not stated)
125 to 128	CC(C)COc1ccccc1C(N)=O
181 to 182	CC(C)CC(=O)Nc1c(C(N)=O)nnn1Cc1ccccc1
100	Cc1ccc(C)c(OCCC(O)C(C)(C)C(=O)O)c1 (configuration not stated)
182 to 184	CC(C)n1c(=O)oc2cc(N3C[C@H](C(N)=O)OC3=O)ccc21
153 to 155	CNC(=O)c1cc(-c2ccc(OC)cc2)nn(CC#N)c1=O
164 to 166	CCCCn1nc(CCC)nc1Cc1ccc(-c2ccccc2-c2nnn[nH]2)nc1
140 to 143	O=C1N(Cc2ccc(Cl)cc2)c2ccccc2C1(O)c1cccs1 (configuration not stated)
75 to 78	O=C1C(=O)c2ccccc2C2=C1SCC1(CCN(CC(O)CN3CCOCC3)CC1)O2 (configuration not stated)
92 to 97	CON1CC(c2ccc(OCc3ccccc3)cc2)CC1=O (configuration not stated)
142 to 144	Cc1cc(Cl)cc2c1NS(=O)(=O)N(C(C)C)C2=O
184 to 190	CCn1c2ccc(C(C)=O)cc2c2cc(C(C)=O)ccc21
224	O=C(NC(=O)c1c(F)cccc1F)Nc1ccc(Oc2cccc3ccccc23)nc1
67 to 71	CCOC(=O)Cc1cnc(NC(C)C)nc1Cl

melting point [°C]	Compound
124	Oc1cc(CCc2ccccc2)cc(O)c1O
68 to 69	CCCCCCCCCC(=O)OC1=C(c2nnc(CCCCCCCCC)o2)N(C)S(=O)(=O)c2ccccc21
108 to 110	O=C(O)C(CCSc1ccccc1)Oc1ccc(C(F)(F)F)cc1 (configuration not stated)
128 to 130	CN(C)c1cc(S(=O)(=O)c2ccccc2)cc(Br)n1
123	COc1ccc(-c2ccc(=O)n(Cc3nc(-c4ccc(F)cc4)no3)c2)cc1
135 to 136	CCCn1nc2c(N)nc3ccccc3c2c1CCCCO
213 to 215	Fc1cccc(Cl)c1C1C=C(c2ccc(Cl)cc2)Nc2ncnn21 (configuration not stated)
93.5 to 95.5	CCCCCCOc1ccc2[nH]c(SC(C)(CO)c3ccccc3)cc2c1 (configuration not stated)
128 to 130	COc1ccc2cccc(C(F)CNC(C)=O)c2c1 (configuration not stated)
206	CC(=O)N(CC(=O)O)c1ccccc1C(=O)O
165 to 168	CC(C)Cn1c(CO)nc2cnc3ccccc3c21
75 to 76	O=C(CSCc1ccc(Cl)c(Cl)c1)NO
165 to 167	COc1ccc(-c2coc(C#N)cc2=O)cc1
196 to 200	CC(=O)Nc1c[nH]c(=S)n1C1CCc2ccccc2C1 (configuration not stated)
146 to 149	O=C(O)COc1cccc2c1CCc1sc(Cc3ccccc3)nc1-2
166 to 168	CC1(C)CC(N2CCN(c3ccccc3)C2=O)c2cc(C#N)ccc2O1 (configuration not stated)
167	Cc1cc(Cc2cc(C)cc(C(C)(C)C)c2O)c(O)c(-n2nc3ccccc3n2)c1
40	Cc1coc(-c2cccnc2)n1
115 to 116	CC(C)(C)OC(=O)N[C@H]1CN(Cc2ccccc2)[C@@H]2CCO[C@H]12 (relative stereo)
